Test results: ChEMBL document CHEMBL4840353, “Investigation on the solid-phase synthesis of silybin prodrugs and their timed-release” (Bioorg Med Chem, 2021)
pEC50: −log10 of the molar value. Values after ≈ are worked out from the molar mass of the structure shown.

Legend:
[1] = Prodrug conversion assessed as RNase (unknown origin)-mediated drug release by measuring half life in simulated intestinal fluid at 1 mM by UV/Vis detector based HPLC analysis; format: ADME; conditions: human, simulated gi fluid, 1000 µM
[2] = Prodrug conversion assessed as RNase (unknown origin) -mediated drug release by measuring half life in imidazole buffer at 1 mM by UV/Vis detector based HPLC analysis; format: ADME; conditions: human, 1000 µM
[3] = Antioxidant activity assessed as DPPH radical scavenging activity measured for 60 mins by spectrophotometric analysis; format: functional
[4] = Stability in alkaline phosphatase buffer at pH 7.4 assessed as drug degradation at 1 mM measured after 48 hrs by HPLC analysis; format: ADME; conditions: read-out: Drug degradation
[5] = Stability in simulated intestinal fluid at pH 6.8 assessed as half life at 1 mM by HPLC analysis; format: ADME
[6] = Aqueous solubility of the compound; format: physicochemical; conditions: buffer
[7] = Stability in simulated gastric fluid at pH 1.1 assessed as drug degradation at 1 mM measured after 24 hrs by HPLC analysis; format: ADME; conditions: read-out: Drug degradation
SH-SY5Y = assay: Cytotoxicity against human differentiated SH-SY5Y cells assessed as reduction in cell viability at 2 to 50 uM measured after 48 hrs by MTT assay; format: cell-based; conditions: dose 2-50 µM

t1/2 [1] [h]	t1/2 [2] [h]	pEC50 [3]	degraded at 48 h, 1000 µM [4] [%]	half-life at 1000 µM [5] [h]	solubility [6]	degraded at 24 h, 1000 µM [7] [%]	solubility ([6]; read-out: solubility) [µM]	SMILES	Activity (SH-SY5Y)
> 48	> 48	3.21	< 2	> 24	Soluble	< 5	–	COc1cc(C2Oc3cc([C@H]4Oc5cc(O)cc(O)c5C(=O)[C@@H]4O)ccc3OC2COP(=O)(O)O[C@H]2[C@@H](O)[C@H](n3cnc4c(N)ncnc43)O[C@@H]2CO)ccc1O (stereo not given in full)	Non-Toxic
13	1.45	3.24	< 2	> 24	Soluble	27	–	COc1cc([C@H]2Oc3cc([C@H]4Oc5cc(O)cc(O)c5C(=O)[C@@H]4O)ccc3O[C@@H]2COP(=O)(O)O[C@H]2[C@@H](O)[C@H](n3ccc(=O)[nH]c3=O)O[C@@H]2CO)ccc1O	Non-Toxic
> 48	> 48	3.24	< 2	> 24	Soluble	< 5	–	COc1cc([C@@H]2Oc3cc([C@H]4Oc5cc(O)cc(O)c5C(=O)[C@@H]4O)ccc3O[C@H]2COP(=O)(O)O[C@H]2[C@@H](O)[C@H](n3cnc4c(N)ncnc43)O[C@@H]2CO)ccc1O	Non-Toxic
11	0.833	3.28	< 2	> 24	Soluble	27	–	COc1cc([C@@H]2Oc3cc([C@H]4Oc5cc(O)cc(O)c5C(=O)[C@@H]4O)ccc3O[C@H]2COP(=O)(O)O[C@H]2[C@@H](O)[C@H](n3ccc(=O)[nH]c3=O)O[C@@H]2CO)ccc1O	Non-Toxic
> 48	> 48	3.20	< 2	> 24	Soluble	< 5	–	COc1cc([C@H]2Oc3cc([C@H]4Oc5cc(O)cc(O)c5C(=O)[C@@H]4O)ccc3O[C@@H]2COP(=O)(O)O[C@H]2[C@@H](O)[C@H](n3cnc4c(N)ncnc43)O[C@@H]2CO)ccc1O	Non-Toxic
20	1.67	3.31	< 2	> 24	Soluble	27	–	COc1cc(C2Oc3cc([C@H]4Oc5cc(O)cc(O)c5C(=O)[C@@H]4O)ccc3OC2COP(=O)(O)O[C@H]2[C@@H](O)[C@H](n3ccc(=O)[nH]c3=O)O[C@@H]2CO)ccc1O (stereo not given in full)	Non-Toxic
–	–	3.21	–	–	–	–	1 (≈ 0.482 µg/mL)	COc1cc(C2Oc3cc([C@H]4Oc5cc(O)cc(O)c5C(=O)[C@@H]4O)ccc3OC2CO)ccc1O (stereo not given in full) [SILIBININ]	–
–	–	3.44	–	–	–	–	–	COc1cc([C@H]2Oc3cc([C@H]4Oc5cc(O)cc(O)c5C(=O)[C@@H]4O)ccc3O[C@@H]2CO)ccc1O [SILYBIN A]	Non-Toxic
–	–	3.24	–	–	–	–	–	COc1cc([C@@H]2Oc3cc([C@H]4Oc5cc(O)cc(O)c5C(=O)[C@@H]4O)ccc3O[C@H]2CO)ccc1O [SILYBIN B]	Non-Toxic
–	–	4.55	–	–	–	–	–	Cc1c(C)c2c(c(C)c1O)CCC(C)(C(=O)O)O2 (stereo not given) [TROLOX]	–
